Format in all cases: cell-based
The target in assay [1] is T1, 17-beta-hydroxysteroid dehydrogenase type 2 (Homo sapiens) (UniProt P37059).
T1 sequence (whole entry): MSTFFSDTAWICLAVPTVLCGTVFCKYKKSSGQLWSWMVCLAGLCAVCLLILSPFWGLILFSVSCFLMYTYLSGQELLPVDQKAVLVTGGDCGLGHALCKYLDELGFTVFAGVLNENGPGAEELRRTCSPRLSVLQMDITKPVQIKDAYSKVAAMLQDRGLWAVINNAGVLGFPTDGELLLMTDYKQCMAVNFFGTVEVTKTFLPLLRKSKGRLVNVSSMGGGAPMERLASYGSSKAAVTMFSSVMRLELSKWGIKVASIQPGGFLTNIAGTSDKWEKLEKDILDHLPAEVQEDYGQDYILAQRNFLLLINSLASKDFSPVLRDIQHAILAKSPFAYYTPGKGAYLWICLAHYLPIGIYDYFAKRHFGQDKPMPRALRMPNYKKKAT
In words: Inhibitory activity at 10 uM against 17-beta-hydroxysteroid dehydrogenase type 2 in MDAMB-231 human breast cancer cells using 2 nM [3H]estradiol. The note with it: Cancer cell lines.

Assay [2] has as its target T2, 17-beta-hydroxysteroid dehydrogenase type 1 (Homo sapiens) (UniProt P14061).
T2 sequence (whole entry): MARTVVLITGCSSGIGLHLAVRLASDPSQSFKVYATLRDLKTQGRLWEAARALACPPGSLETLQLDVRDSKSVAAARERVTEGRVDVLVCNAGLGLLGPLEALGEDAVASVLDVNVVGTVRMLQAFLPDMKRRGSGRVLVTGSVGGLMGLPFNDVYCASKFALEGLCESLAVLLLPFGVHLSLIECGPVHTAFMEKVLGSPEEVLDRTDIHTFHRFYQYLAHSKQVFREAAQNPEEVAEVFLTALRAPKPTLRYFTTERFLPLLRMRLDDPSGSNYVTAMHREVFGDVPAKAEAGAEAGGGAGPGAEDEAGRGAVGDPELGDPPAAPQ
In words: Inhibitory activity at 10 uM against 17-beta-hydroxysteroid dehydrogenase type 1 expressed in T47D human breast cancer cells using 2 nM [3H]estrone.

In assay [3] the target is T3, 17-beta-hydroxysteroid dehydrogenase type 1 (Homo sapiens, UniProt P14061).
T3 sequence (P14061 whole entry): T2 sequence (whole entry)
Nature of the assay: Inhibition of 17-beta-hydroxysteroid dehydrogenase type 1 expressed in T47D human breast cancer cells using 2 nM [3H]estrone.

As usually defined, the inhibition is the relative decrease from the control value, in per cent. The term IC50 denotes the concentration needed to halve the response being measured. Low readings indicate inhibition by little substance, high ones a need for much substance.

In the case of `C[C@]12CCC3c4ccc(O)cc4CCC3C1CC(C=O)=C2O` (stereo not given in full), the inhibition in assay [1] stood at 15%; in assay [2], 97%. This molecule displayed an IC50 in assay [3] of 110 nM.

For the molecule `COC(=O)Cn1cc2c(n1)[C@@]1(C)CCC3c4ccc(O)cc4CCC3C1C2` (stereo not given in full), the inhibition in assay [1] came to 19%; in assay [2], 95%.

As to `COC(=O)Cn1ncc2c1[C@@]1(C)CCC3c4ccc(O)cc4CCC3C1C2` (stereo not given in full), the results for the inhibition in assay [1] and in assay [2] were 30% and 79%, respectively.

Regarding `C[C@]12CC[C@@H]3c4ccc(O)cc4CCC3[C@@H]1CC(=N/O)/C2=N\O` (single isomer, unassigned), the inhibition is 2% in assay [1] and 55% in assay [2].

Take `C[C@]12CCC3c4ccc(O)cc4CCC3C1Cc1c2n[nH]c1C(=O)NCc1ccccn1` (stereo not given in full): the values for the inhibition in assay [1] and in assay [2] were 9% and 93%, respectively.

Consider `CCOC(=O)c1[nH]nc2c1CC1C3CCc4cc(O)ccc4C3CC[C@]21C` (stereo not given in full), for which the inhibition amounted to 7% in assay [1] and 94% in assay [2].

In the case of `CNC(=O)c1[nH]nc2c1CC1C3CCc4cc(O)ccc4C3CC[C@]21C` (stereo not given in full), the values for the inhibition in assay [1] and in assay [2] were 14% and 62%, respectively.

As for `C[C@]12CCC3c4ccc(O)cc4CCC3C1Cc1c[nH]nc12` (stereo not given in full), the inhibition in assay [1] was found to be 32%; in assay [2], 97%. The molecule also came in with an IC50 in assay [3] of 180 nM.

With `C[C@]12CCC3c4ccc(O)cc4CCC3C1Cc1c2n[nH]c1C(=O)NCCc1cccnc1` (stereo not given in full), the results for the inhibition in assay [1] and in assay [2] were 3% and 99%, respectively.

As to `C[C@]12CC[C@@H]3c4ccc(O)cc4CCC3[C@@H]1CC(C#N)C2=O` (single isomer, unassigned), the inhibition stood at 17% in assay [1] and 77% in assay [2]. In assay [3], this molecule displayed an IC50 of 10000 nM.

With `C[C@]12CCC3c4ccc(O)cc4CCC3C1Cc1c(CO)n[nH]c12` (stereo not given in full), the inhibition in assay [1] is 1%; in assay [2] it was 94%.

As for `C[C@]12CCC3c4ccc(O)cc4CCC3C1Cc1cn(CCC#N)nc12` (stereo not given in full), the inhibition in assay [1] amounted to 44%; in assay [2], 95%.

For `C[C@]12CC[C@@H]3c4ccc(O)cc4CCC3[C@@H]1C/C(=N/O)C2=O` (single isomer, unassigned), the inhibition in assay [1] turned out to be 5%; in assay [2] it was 95%. The same molecule registered a half-maximal inhibitory concentration (IC50) in assay [3] of 1100 nM.

For `COCCn1ncc2c1[C@@]1(C)CCC3c4ccc(O)cc4CCC3C1C2` (stereo not given in full), the inhibition amounted to 55% in assay [1] and 83% in assay [2].

In the case of `CCOC(=O)C(=O)C1=C(O)[C@@]2(C)CCC3c4ccc(O)cc4CCC3C2C1` (stereo not given in full), the inhibition in assay [1] was 7%; in assay [2], 75%.

For `Cn1cccc1CNC(=O)c1[nH]nc2c1CC1C3CCc4cc(O)ccc4C3CC[C@]21C` (stereo not given in full), the inhibition in assay [1] amounted to 4%; in assay [2], 89%.

For the molecule `CC1(C#N)C[C@H]2C3CCc4cc(O)ccc4[C@H]3CC[C@]2(C)C1=O` (single isomer, unassigned), the values for the inhibition in assay [1] and in assay [2] were 12% and 85%, respectively.

Turning to `C[C@]12CCC3c4ccc(O)cc4CCC3C1Cc1c2n[nH]c1C(=O)NCC1CCCO1` (stereo not given in full), the inhibition in assay [1] turned out to be 4%; in assay [2] it was 87%.

`C[C@]12CCC3c4ccc(O)cc4CCC3C1Cc1c2n[nH]c1C(=O)O` (stereo not given in full): the inhibition in assay [1] was found to be 6%; in assay [2], 32%.

In the case of `C[C@]12CCC3c4ccc(O)cc4CCC3C1Cc1c2n[nH]c1C(F)(F)F` (stereo not given in full), the inhibition in assay [1] is 36%; in assay [2], 75%.

On to `CC(C)Cn1ncc2c1[C@@]1(C)CCC3c4ccc(O)cc4CCC3C1C2` (stereo not given in full), for which the inhibition in assay [1] was determined as 44%; in assay [2], 70%.

Consider `CC1(C)C[C@H]2C3CCc4cc(O)ccc4[C@H]3CC[C@]2(C)C1=O` (single isomer, unassigned), for which the inhibition in assay [1] came to 35%; in assay [2], 95%.

As to `Cn1ncc2c1[C@@]1(C)CCC3c4ccc(O)cc4CCC3C1C2` (stereo not given in full), the results for the inhibition in assay [1] and in assay [2] were 32% and 43%, respectively.

Take `COCCn1cc2c(n1)[C@@]1(C)CCC3c4ccc(O)cc4CCC3C1C2` (stereo not given in full): the inhibition in assay [1] came to 48%; in assay [2] it was 95%.

Consider `C[C@]12CCC3c4ccc(O)cc4CCC3C1CC(C(=O)C(F)(F)F)=C2O` (stereo not given in full), for which the inhibition turned out to be 1.5% in assay [1] and 78% in assay [2].

For `C[C@]12CCC3c4ccc(O)cc4CCC3C1Cc1c2n[nH]c1C(=O)NCc1cccnc1` (stereo not given in full), the inhibition was found to be 28% in assay [1] and 92% in assay [2].

For the molecule `CN1CCN(CNC(=O)c2[nH]nc3c2CC2C4CCc5cc(O)ccc5C4CC[C@]32C)CC1` (stereo not given in full), the inhibition in assay [1] amounted to 1%; in assay [2], 50%.

For `C[C@]12CCC3c4ccc(O)cc4CCC3C1Cc1cccnc12` (stereo not given in full), the inhibition in assay [1] came out at 34%; in assay [2] it was 78%.

Take `CCN(C)C(=O)c1[nH]nc2c1CC1C3CCc4cc(O)ccc4C3CC[C@]21C` (stereo not given in full): the inhibition in assay [1] was 6%; in assay [2] it was 88%.

For `Cc1cnc(CNC(=O)c2[nH]nc3c2CC2C4CCc5cc(O)ccc5C4CC[C@]32C)cn1` (stereo not given in full), the values for the inhibition in assay [1] and in assay [2] were 61% and 80%, respectively.

For `CC(C)NC(=O)c1[nH]nc2c1CC1C3CCc4cc(O)ccc4C3CC[C@]21C` (stereo not given in full), the inhibition came out at 0% in assay [1] and 57% in assay [2].

For the molecule `CC(C)Cn1cc2c(n1)[C@@]1(C)CCC3c4ccc(O)cc4CCC3C1C2` (stereo not given in full), the inhibition in assay [1] turned out to be 61%; in assay [2] it was 77%.

Consider `Cn1cc2c(n1)[C@@]1(C)CCC3c4ccc(O)cc4CCC3C1C2` (stereo not given in full), for which the figures for the inhibition in assay [1] and in assay [2] were 24% and 94%, respectively.
